Reference: paper PMC12722308, “A phase 1 study of orally administered 5-fluoro-2’-deoxycytidine with tetrahydrouridine in patients with refractory solid tumors” (Cancer Chemotherapy and Pharmacology, 2025)
Several values for one entry are separate records, joined by “and”; a condition that tells them apart may be missing. Equal values may be shown once. Read-outs that look alike come from different tables or passages of the source. Marks after values point to notes of the source that are not given here.

What was measured:
[1] = Phase 1 dose escalation: adverse events (CTCAE v4.0), DLT, MTD/RP2D; type: in vivo, human; details: orally once daily with 3000 mg THU on days 1–6 and 8–13 of each 21-day cycle (dose level 8)
Description: FdCyd and THU were supplied by the NCI Division of Cancer Treatment and Diagnosis. Patients were administered both drugs orally in 21-day cycles, and dose escalation proceeded according to a traditional 3 + 3 design as per the dose escalation schema shown in Supplementary Table S1. […] Patients maintained a study diary to note any side effects or concurrent medications. The NCI Common Terminology Criteria for Adverse Events version 4.0 was used to grade adverse events. Tumor response was assessed by radiography at baseline and every 2 cycles thereafter and evaluated per RECIST version 1.1 [11]. Following determination of the maximum tolerated dose (MTD)/recommended phase 2 dose (RP2D), an additional 13 patients were enrolled on a RP2D expansion cohort for assessments of pharmacodynamic biomarkers in baseline and on-treatment tumor biopsies.
DLTs were defined as toxicities that were at least possibly related to FdCyd or THU within the first cycle of treatment and met one of the following criteria: grade ≥ 3 non-hematological toxicity (including grade 3 nausea, vomiting, or diarrhea only if refractory to standard supportive care; grade 3 electrolyte toxicities only if unable to be corrected to ≤ grade 1 within 24 h; and tumor pain only if refractory to analgesics); grade 4 thrombocytopenia; or grade 4 neutropenia lasting ≥ 5 days or febrile neutropenia. […]

[2] = Plasma pharmacokinetics by LC-MS/MS; type: in vivo, human; details: for Tmax: read-out: FdCyd Tmax; for Vd/F: read-out: FdCyd Vz/F; for half-life: read-out: FdCyd t½ (converted); for AUC(0-inf): read-out: FdCyd AUC0-inf; for Cmax: read-out: FdCyd Cmax; for FdCyd2h-D2: day 2; for FdCyd2h-D3: day 3
Description: Blood specimens for PK analysis were collected on Cycle 1 Day 1 (C1D1) prior to THU administration and then at 15, 30, and 45 min and 1, 2, 3, 4, 5, and 6 h after THU administration, as well as on C1D2 and C1D3 prior to and 2 h after THU administration. Urine specimens for PK analysis were collected on C1D1 prior to treatment and then at every void from 0 to 24 h after THU administration. All specimens for PK analysis were processed and analyzed by LC-MS/MS as described previously, and Phoenix WinNonlin software was used for data analysis.

CDKN2A = test: Tumor CDKN2A promoter methylation from genome-wide methylation sequencing; type: in vivo, human; details: of 6 expansion cohort patients with both CDKN2A and p16 IHC data
Description: Tumor biopsy cores collected at baseline and C1W3 underwent nucleic acid extraction using the Qiagen AllPrep FFPE Nucleic acid Extraction kit and QiaCube automated platform. Extractions were performed on 1–2 biopsy cores per patient per time point; for specimens with low tumor content, tumor microdissection was performed prior to extraction. Genome-wide DNA methylation sequencing on the isolated DNA was performed by Zymo Research using Methyl-MiniSeq Genome-Wide Bisulfite Sequencing methodology. Sequence reads from bisulfite-treated Classic RRBS libraries were identified using standard Illumina base calling software. Raw FASTQ files were trimmed of adapter, filled-in nucleotides, and low-quality base calls using TrimGalore 0.6.4. […] Methylated and unmethylated read totals for each CpG site were called using Bismark Methylation Extractor. The methylation level of each sampled cytosine was estimated as the number of reads reporting a C, divided by the total number of reads reporting a C or T.
All statistical analyses were performed in R. Differentially methylated CpG sites (DMCs)—both hypo- and hyper-methylated—were identified with the R package DSS [14] using the two-sided Wald test for beta-binomial distributions with smoothing step as recommended. […] Regions with many significant DMCs were detected as differentially methylated regions (DMRs) using DSS function callDMR. […]

[3] = system: p16-expressing vimentin-positive (V+) CTCs; design: method as in PMID 32314030; details: intravenously administered FdCyd; 6 of 12; cited from earlier work
[4] = All FdCyd doses + THU 3000 mg oral (n=44), geom. mean (geom. SD)
[5] = All FdCyd doses + THU 6000 mg oral (n=11), geom. mean (geom. SD)
[6] = DL1: FdCyd 30 mg + THU 3000 mg oral (n=3), geom. mean (geom. SD)
[7] = DL2: FdCyd 60 mg + THU 3000 mg oral (n=4), geom. mean (geom. SD)
[8] = DL3: FdCyd 90 mg + THU 3000 mg oral (n=3), geom. mean (geom. SD)
[9] = DL4: FdCyd 120 mg + THU 3000 mg oral (n=3), geom. mean (geom. SD)
[10] = DL5-9: FdCyd 160 mg + THU 3000 mg oral (n=31), geom. mean (geom. SD)
[11] = DL10: FdCyd 60 mg + THU 6000 mg oral (n=8), geom. mean (geom. SD)
[12] = DL11: FdCyd 80 mg + THU 6000 mg oral (n=3), geom. mean (geom. SD)
[13] = Total, all dose levels (n=55), geom. mean (geom. SD)
[14] = human, plasma, oral, Total, all dose levels (n=55), geom. mean (geom. SD)
[15] = human, plasma, po, All FdCyd doses + THU 3000 mg oral (n=44), geom. mean (geom. SD)
[16] = human, plasma, po, All FdCyd doses + THU 6000 mg oral (n=11), geom. mean (geom. SD)
[17] = human, plasma, po, DL1: FdCyd 30 mg + THU 3000 mg oral (n=3), geom. mean (geom. SD)
[18] = human, plasma, po, DL2: FdCyd 60 mg + THU 3000 mg oral (n=4), geom. mean (geom. SD)
[19] = human, plasma, po, DL3: FdCyd 90 mg + THU 3000 mg oral (n=3), geom. mean (geom. SD)
[20] = human, plasma, po, DL4: FdCyd 120 mg + THU 3000 mg oral (n=3), geom. mean (geom. SD)
[21] = human, plasma, po, DL5-9: FdCyd 160 mg + THU 3000 mg oral (n=31), geom. mean (geom. SD)
[22] = human, plasma, po, DL10: FdCyd 60 mg + THU 6000 mg oral (n=8), geom. mean (geom. SD)
[23] = human, plasma, po, DL11: FdCyd 80 mg + THU 6000 mg oral (n=3), geom. mean (geom. SD)
[24] = plasma FdCyd at 2 h, DL1: FdCyd 30 mg + THU 3000 mg oral (n=3), geom. mean (geom. SD)
[25] = plasma FdCyd at 2 h, DL2: FdCyd 60 mg + THU 3000 mg oral (n=4), geom. mean (geom. SD)
[26] = plasma FdCyd at 2 h, DL3: FdCyd 90 mg + THU 3000 mg oral (n=3), geom. mean (geom. SD)
[27] = plasma FdCyd at 2 h, DL4: FdCyd 120 mg + THU 3000 mg oral (n=3), geom. mean (geom. SD)
[28] = plasma FdCyd at 2 h, DL5-9: FdCyd 160 mg + THU 3000 mg oral (n=31), geom. mean (geom. SD)
[29] = plasma FdCyd at 2 h, DL10: FdCyd 60 mg + THU 6000 mg oral (n=8), geom. mean (geom. SD)
[30] = plasma FdCyd at 2 h, DL11: FdCyd 80 mg + THU 6000 mg oral (n=3), geom. mean (geom. SD)

## Nc1nc(=O)n([C@H]2C[C@H](O)[C@@H](CO)O2)cc1F [FdCyd, 5-fluoro-2’-deoxycytidine]
[1]
  Maximum tolerated dose / RP2D, FdCyd dose: 160 mg
[2]; [4]
  FdCyd Cl/F: 123 L/h and 123 (2.37)^c L/h
  FdCyd Cmax/Dose: 4.0 (2.2)^b µg/L / mg
[2]; [5]
  FdCyd Cl/F: 85.7 (1.65)^c L/h
  FdCyd Cmax/Dose: 6.6 (1.6)^b µg/L / mg
[2]; [6]
  FdCyd Cl/F: 212 (2.77) L/h
  FdCyd Cmax/Dose: 3.0 (2.3) µg/L / mg
[2]; [7]
  FdCyd Cl/F: 95.7 (3.08) L/h
  FdCyd Cmax/Dose: 4.9 (3.0) µg/L / mg
[2]; [8]
  FdCyd Cl/F: 84.7 (1.91) L/h
  FdCyd Cmax/Dose: 5.8 (1.8) µg/L / mg
[2]; [9]
  FdCyd AUC0-inf: 1.59 (2.43) mg/L•h
  FdCyd Cl/F: 75.6 (2.43) L/h
  FdCyd Cmax/Dose: 7.4 (2.0) µg/L / mg
[2]; [10]
  FdCyd Cl/F: 133 (2.35) L/h
  FdCyd Cmax/Dose: 3.6 (2.1) µg/L / mg
[2]; [11]
  FdCyd Cl/F: 96.0 (1.71) L/h
  FdCyd Cmax/Dose: 6.4 (1.6) µg/L / mg
[2]; [12]
  FdCyd Cl/F: 65.8 (1.41) L/h
  FdCyd Cmax/Dose: 7.1 (1.6) µg/L / mg
[2]; [13]
  FdCyd Cl/F: 115 (2.26) L/h
  FdCyd Cmax/Dose: 4.4 (2.1) µg/L / mg
[2]; comparison with ref 8
  FdCyd peak concentrations at the oral RP2D (160 mg) relative to those after the IV FdCyd RP2D of 100 mg/m^2: approximately 20%
[2]; [14]
  Tmax: ~72 min
  Vd/F: 98 L
[2]; human, plasma, oral, from previous clearance (142 mL/min/m^2) vs current Cl/F (123 L/h), read-out: FdCyd bioavailability in the current study
  bioavailability: ~12%
[2]; [15]
  Tmax: 78 min
  Vd/F: 111 L
  half-life: 36 min
[2]; [16]
  Tmax: 54 min
  Vd/F: 56 L
  half-life: 30 min
[2]; [17]
  AUC(0-inf): 140 ng·h/mL
  Cmax: 90 ng/mL
  Tmax: 54 min
  Vd/F: 187 L
  half-life: 36 min
[2]; [18]
  AUC(0-inf): 630 ng·h/mL
  Cmax: 290 ng/mL
  Tmax: 60 min
  Vd/F: 90 L
  half-life: 42 min
[2]; [19]
  AUC(0-inf): 1060 ng·h/mL
  Cmax: 530 ng/mL
  Tmax: 90 min
  Vd/F: 139 L
  half-life: 66 min
[2]; [20]
  Cmax: 890 ng/mL
  Tmax: 72 min
  Vd/F: 62 L
  half-life: 36 min
[2]; [21]
  AUC(0-inf): 1200 ng·h/mL
  Cmax: 580 ng/mL
  Tmax: 84 min
  Vd/F: 114 L
  half-life: 36 min
[2]; [22]
  AUC(0-inf): 630 ng·h/mL
  Cmax: 380 ng/mL
  Tmax: 48 min
  Vd/F: 63 L
  half-life: 30 min
[2]; [23]
  AUC(0-inf): 1220 ng·h/mL
  Cmax: 570 ng/mL
  Tmax: 90 min
  Vd/F: 44 L
  half-life: 30 min
[2]; human, plasma FdCyd at 2 h, day 1, DL10: FdCyd 60 mg + THU 6000 mg oral (n=8), geom. mean (geom. SD), read-out: FdCyd2h-D1
  concentration at 2 h: 317 ng/mL
[2]; in vivo
  Relationship between week 1 cumulative FdCyd exposure and occurrence of DLT: no statistically significant relationship
[2]; oral FdCyd with THU
  FdCyd dose from which the target Cmax of 1 µM (245 ng/mL) was reached by individual patients: ≥ 60 mg
[2]; plasma FdCyd at 2 h, day 1, DL2: FdCyd 60 mg + THU 3000 mg oral (n=4), geom. mean (geom. SD)
  FdCyd2h-D1: 0.203 (3.87) mg/L
[2]; plasma FdCyd at 2 h, day 1, DL3: FdCyd 90 mg + THU 3000 mg oral (n=3), geom. mean (geom. SD)
  FdCyd2h-D1: 0.525 (1.79) mg/L
[2]; plasma FdCyd at 2 h, day 1, DL4: FdCyd 120 mg + THU 3000 mg oral (n=3), geom. mean (geom. SD)
  FdCyd2h-D1: 0.611 (3.17) mg/L
[2]; plasma FdCyd at 2 h, day 1, DL5-9: FdCyd 160 mg + THU 3000 mg oral (n=31), geom. mean (geom. SD)
  FdCyd2h-D1: 0.505 (1.92) mg/L
[2]; plasma FdCyd at 2 h, day 1, DL11: FdCyd 80 mg + THU 6000 mg oral (n=3), geom. mean (geom. SD)
  FdCyd2h-D1: 0.571 (1.64) mg/L
[2]; [24]
  FdCyd2h-D2: 0.076 (3.80) mg/L
  FdCyd2h-D3: 0.042 (2.6) mg/L
[2]; [25]
  FdCyd2h-D2: 0.169 (3.80) mg/L
  FdCyd2h-D3: 0.145 (1.14) mg/L
[2]; [26]
  FdCyd2h-D2: 0.449 (1.55) mg/L
  FdCyd2h-D3: 0.460 (2.89) mg/L
[2]; [27]
  FdCyd2h-D2: 0.499 (9.47) mg/L
  FdCyd2h-D3: 0.891 (2.08) mg/L
[2]; [28]
  FdCyd2h-D2: 0.595 (3.29) mg/L
  FdCyd2h-D3: 0.650 (1.98) mg/L
[2]; [29]
  FdCyd2h-D2: 0.559 (1.63) mg/L
  FdCyd2h-D3: 0.584 (1.60) mg/L
[2]; [30]
  FdCyd2h-D2: 0.931 (1.99) mg/L
  FdCyd2h-D3: 0.745 (2.48) mg/L
CDKN2A
  Patients with treatment-associated decreases in tumor CDKN2A methylation: Five
[3]
  Patients with increases in p16-expressing V+ CTCs: 50%
